From PubChem BioAssay (NCI) come the findings set out here.

Structures are written as SMILES. “And” between values parts separate entries of the source, which are not always exact repeats. Equal values may be shown once.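 A five-concentration, 48-hour dose response in 96-well plates underlies each endpoint, interpolated linearly between surrounding concentrations. TGI: total growth inhibition.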

Some test systems named below: SF-295 CNS; EKVX NSCLC; UO-31 renal; HOP-62 NSCLC; IGROV1 ovarian; CAKI-1 renal; MCF7 breast.
Assay in all cases: NCI tumour cell line growth inhibition, 48 h

With `CC(C)/C(Cl)=N\OC(=O)Nc1ccccc1F`, the TGI in the assay with SF-295 CNS was 30.3 µM; in the assay on EKVX NSCLC, 30.7 µM; with UO-31 renal, 29.6 µM; in the assay on HOP-62 NSCLC it was above 55.6 µM; in the assay with IGROV1 ovarian it was 33.4 µM; in the assay with CAKI-1 renal it was 38.3 µM. Besides, the TGI in the assay on MCF7 breast came out at 16 µM.
As to `COc1ccc2c(CCN)c(C(=O)O)[nH]c2c1`, the TGI with SF-295 CNS, in the assay with EKVX NSCLC, with UO-31 renal, in the assay with HOP-62 NSCLC, in the assay with IGROV1 ovarian and with CAKI-1 renal was above 100 µM each time. In the assay on MCF7 breast, this compound had a TGI above 100 µM.
As to `C[C@H](CCC(=O)NCCS(=O)(=O)O)[C@H]1CC[C@H]2[C@@H]3CC[C@@H]4C[C@H](O)CC[C@]4(C)[C@H]3CC[C@]12C`, the TGI with SF-295 CNS, in the assay with EKVX NSCLC, with UO-31 renal, in the assay with HOP-62 NSCLC, in the assay on IGROV1 ovarian and in the assay on CAKI-1 renal was above 100 µM each time. The same compound showed a TGI in the assay with MCF7 breast above 100 µM.
In the case of `COC(=O)C(Cc1c(C2Nc3ccccc3C2CC(NC(=O)CNC(C)=O)C(=O)OC)[nH]c2ccccc12)NC(=O)CNC(C)=O` (stereo unspecified), the TGI in the assay on SF-295 CNS is above 100 µM; in the assay on EKVX NSCLC it was above 100 µM; with UO-31 renal, above 100 µM; with HOP-62 NSCLC, above 69.8 µM; in the assay on IGROV1 ovarian it was above 100 µM; in the assay with CAKI-1 renal, above 100 µM. Besides, the TGI in the assay on MCF7 breast is above 100 µM.
As to `COC(=O)C1=C(C(=O)OC)C(C(=O)c2ccc(Br)cc2)N2N=C(c3ccc(Cl)cc3)C=CC12` (stereo unspecified), the TGI in the assay on SF-295 CNS, in the assay with EKVX NSCLC, in the assay on UO-31 renal, in the assay with HOP-62 NSCLC, with IGROV1 ovarian and in the assay on CAKI-1 renal was above 100 µM throughout. The TGI in the assay with MCF7 breast was above 100 µM.
Regarding `CC(=O)OCCOCn1c2c(c(=S)[nH]c1=O)CCC2`, the TGI with SF-295 CNS, with EKVX NSCLC, in the assay on UO-31 renal, in the assay with HOP-62 NSCLC, in the assay with IGROV1 ovarian and in the assay on CAKI-1 renal was above 100 µM each time. The compound further came in with a TGI in the assay on MCF7 breast above 100 µM.
On to `COC(=O)NCCc1[nH]nc2c1C(=O)C=C(N1CCOCC1)C2=O`, for which the TGI in the assay on SF-295 CNS, in the assay with EKVX NSCLC, with UO-31 renal, in the assay with HOP-62 NSCLC, in the assay on IGROV1 ovarian and in the assay on CAKI-1 renal was above 100 µM throughout. The TGI in the assay on MCF7 breast is above 100 µM.
For the compound `CC(=O)OC(/C=C/c1ccccc1)P1(=O)N(CC(C)(C)C)[C@@H]2CCCC[C@H]2N1CC(C)(C)C` (stereo partly specified), the TGI is 25.4 µM and 14.9 µM in the assay on SF-295 CNS; 19.1 µM and 18.9 µM in the assay with EKVX NSCLC; 19.6 µM and 17 µM in the assay on UO-31 renal; 38.3 µM and 30.3 µM in the assay on HOP-62 NSCLC; 19.6 µM and 19.3 µM with IGROV1 ovarian; 31.3 µM and 23.6 µM with CAKI-1 renal. In addition, in the assay with MCF7 breast, the TGI was 16 µM and 17.5 µM.
Consider `O=C(O)c1cc2ccccc2c(N=Nc2ccc(S(=O)(=O)Nc3nccs3)cc2)c1O`, for which the TGI in the assay with SF-295 CNS, with EKVX NSCLC, in the assay with UO-31 renal, in the assay on HOP-62 NSCLC, in the assay with IGROV1 ovarian and in the assay with CAKI-1 renal was above 100 µM throughout. Also, in the assay with MCF7 breast, the TGI was above 100 µM.
As for `Oc1ccc(-c2nc(-c3cccnc3)c(-c3ccc(Cl)cc3)[nH]2)cc1O`, the TGI with SF-295 CNS is 29.8 µM; in the assay on EKVX NSCLC it was 50.2 µM; with UO-31 renal, 26.8 µM; in the assay with HOP-62 NSCLC it was 25.3 µM; in the assay with IGROV1 ovarian, 18.6 µM; with CAKI-1 renal, 46.7 µM. In the assay on MCF7 breast, this compound gave a TGI of 24.2 µM.
On to `COC(=O)c1c(O)ccc2c1c1c(n2Cc2ccccc2Cl)C(=O)c2ccccc2C1=O`, for which the TGI in the assay with SF-295 CNS is 31.6 µM; in the assay with EKVX NSCLC, 32.5 µM; in the assay on UO-31 renal it was 24.8 µM; in the assay with HOP-62 NSCLC, 47.9 µM; with IGROV1 ovarian, 28.3 µM; in the assay with CAKI-1 renal, 27.4 µM. Also, the TGI in the assay with MCF7 breast is 32.4 µM.
As for `CC[C@H](O)[C@H](C)C=C1SCCCS1`, the TGI in the assay with SF-295 CNS, in the assay on EKVX NSCLC, in the assay on UO-31 renal, with HOP-62 NSCLC, with IGROV1 ovarian and in the assay with CAKI-1 renal was above 100 µM throughout. Further, in the assay with MCF7 breast, the TGI was above 100 µM.
As to `CCC(CON(C)c1ccccc1)(SC)SC`, the TGI in the assay on SF-295 CNS, in the assay on EKVX NSCLC, in the assay with UO-31 renal, in the assay with HOP-62 NSCLC, with IGROV1 ovarian and in the assay with CAKI-1 renal was above 100 µM each time. The TGI in the assay with MCF7 breast is above 100 µM.
